Results on 1 compound are retold here after patent publication US9758561B2 (priority 2014, dated 2017).

For one data set, the target named is T1, human glucagon receptor (Homo sapiens, UniProt P47871).
T1 construct: expressed in transfected cells; host or cells: HEK-293
Put plainly: cAMP response of HEK-293 cells stably expressing human glucagon receptor (HTRF). Format: cell-based. Conditions: Table 6; read-out: EC50 hGlucagon-R. The method in brief: (§1)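 HEK-293 cells stably expressing the receptor were taken up in HBSS/20 mM HEPES/0.1% BSA with 2 mM IBMX at 400000 cells/ml. They were exposed to increasing concentrations of peptide for 30 minutes at room temperature, and formed cAMP was measured by HTRF.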

The nature of data set [1]: Pharmacokinetic testing in mice, 1 mg/kg s.c. (LC/MS). Format: in vivo. Conditions: mouse, plasma, sc. The protocol:
Mice were dosed 1 mg/kg subcutaneously (s.c.). The mice were sacrificed and blood samples were collected after 0.25, 0.5, 1, 2, 4, 8, 16 and 24 hours post application. Plasma samples were analyzed after protein precipitation via liquid chromatography mass spectrometry (LC/MS). PK parameters and half-life were calculated using WinonLin Version 5.2.1 (non-compartment model).

Data set [2] is described as follows: Solubility testing in buffer (HPLC-UV). Format: physicochemical.
Another data set addresses T2, human GIP receptor (Homo sapiens, UniProt P48546).
T2 construct: expressed in transfected cells; host or cells: HEK-293
T2 sequence (P48546 22-466): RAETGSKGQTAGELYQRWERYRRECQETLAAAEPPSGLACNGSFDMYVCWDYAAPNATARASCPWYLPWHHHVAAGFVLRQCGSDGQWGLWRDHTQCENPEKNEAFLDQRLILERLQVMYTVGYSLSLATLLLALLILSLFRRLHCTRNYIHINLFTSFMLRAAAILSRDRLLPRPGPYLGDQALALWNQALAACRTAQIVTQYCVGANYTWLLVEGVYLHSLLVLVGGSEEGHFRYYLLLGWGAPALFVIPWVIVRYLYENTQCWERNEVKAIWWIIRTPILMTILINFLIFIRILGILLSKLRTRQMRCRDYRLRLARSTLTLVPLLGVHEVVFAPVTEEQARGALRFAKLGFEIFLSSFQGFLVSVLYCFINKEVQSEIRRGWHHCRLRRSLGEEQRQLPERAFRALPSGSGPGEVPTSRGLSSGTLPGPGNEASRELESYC
Put plainly: cAMP response of HEK-293 cells stably expressing human GIP receptor (HTRF). Format: cell-based. The conditions noted are these: Table 6; read-out: EC50 hGIP-R. Summed up:
as §1

The target in the next data set is T3, human GLP-1 receptor (Homo sapiens, UniProt P43220).
T3 construct: expressed in transfected cells; host or cells: HEK-293
Put plainly: cAMP response of HEK-293 cells stably expressing human GLP-1 receptor (HTRF). Format: cell-based. Conditions: Table 6; read-out: EC50 hGLP-1R. Summed up:
as §1

Data set [3] is described as follows: Stability testing in solution, 7 days at 40° C. (HPLC-UV). Format: physicochemical. The protocol:
After that time course, the sample was centrifuged for 20 min at 4500 rpm and 0.2 μL of the supernatant were analysed with HPLC-UV.
For determination of the amount of the remaining peptide, the peak areas of the target compound at t0 and t7 were compared, resulting in “% remaining peptide”, following the equation % remaining peptide=[(peak area peptide t7)×100]/peak area peptide t0.
The stability is expressed as “% remaining peptide”.

Data set [4] deals with female diet-induced obese (DIO) C57BL/6 mice. Put plainly: Acute effect on blood glucose in fed female DIO C57BL/6 mice. The conditions noted are these: 50 μg/kg s.c., profile over 24 h. Format: in vivo. How it is done:
(§2) C57BL/6 Harlan mice are housed in groups in a specific pathogen-free barrier facility on a 12 h light/dark cycle with free access to water and standard or high-fat diet. After prefeeding on high-fat diet, mice are stratified to treatment groups (n=8), so that each group has similar mean body weight. An age-matched group with ad-libitum access to standard chow is included as standard control group. Before the experiment, mice are subcutaneously (s.c.) injected with vehicle solution and weighed for 3 days to acclimate them to the procedures.
The volume of administration is 5 mL/kg. The animals have access to water and their corresponding diet during the experiment. Blood glucose levels are measured at t=0 h, t=1 h, t=2 h, t=3 h, t=4 h, t=6 h and t=24 h (method: Accu-Check glucometer). Blood sampling is performed by tail incision without anaesthesia.
Statistical analyses are performed with Everstat 6.0 by repeated measures two-way ANOVA and Dunnetts post-hoc analyses (glucose profile) and 1-way-ANOVA, followed by Dunnetts post-hoc test (body weight, body fat). Differences versus vehicle-treated DIO control mice are considered statistically significant at the p<0.05 level. […]

For data set [5] the test system is unchanged. Put plainly: Chronic effect on body weight and body fat in female DIO C57BL/6 mice. Format: in vivo. The conditions noted are these: 50 μg/kg bid s.c., 4 weeks. The protocol:
as §2
Body weight is recorded daily. Two days before start of treatment and on day 26, total fat mass is measured by nuclear magnetic resonance (NMR).
Statistical analyses are performed with Everstat 6.0 by repeated measures two-way ANOVA and Dunnetts post-hoc analyses (glucose profile) and 1-way-ANOVA, followed by Dunnetts post-hoc test (body weight, body fat). Differences versus vehicle-treated DIO control mice are considered statistically significant at the p<0.05 level.
Female obese C57BL/6 mice were treated for 4 weeks twice daily subcutaneously with 50 μg/kg SEQ ID NO: 6, 50 μg/kg SEQ ID NO: 7 or vehicle. Body weight was recorded daily, and body fat content was determined before the start and after 4 weeks of treatment. […] These changes resulted from a decrease in body fat, as shown by the absolute changes in body fat content (Table 10, FIG. 3).
Female obese C57BL/6 mice were treated for 4 weeks twice daily subcutaneously with 50 μg/kg SEQ ID NO: 9 or vehicle. Body weight was recorded daily, and body fat content was determined before the start and after 4 weeks of treatment.

≈ marks a conversion by molar mass, not a printed value. Where two headings read alike, the source gives them in different places. A value given as a limit tells only on which side of the number the result lay.

T1 sequence (P47871 26-477): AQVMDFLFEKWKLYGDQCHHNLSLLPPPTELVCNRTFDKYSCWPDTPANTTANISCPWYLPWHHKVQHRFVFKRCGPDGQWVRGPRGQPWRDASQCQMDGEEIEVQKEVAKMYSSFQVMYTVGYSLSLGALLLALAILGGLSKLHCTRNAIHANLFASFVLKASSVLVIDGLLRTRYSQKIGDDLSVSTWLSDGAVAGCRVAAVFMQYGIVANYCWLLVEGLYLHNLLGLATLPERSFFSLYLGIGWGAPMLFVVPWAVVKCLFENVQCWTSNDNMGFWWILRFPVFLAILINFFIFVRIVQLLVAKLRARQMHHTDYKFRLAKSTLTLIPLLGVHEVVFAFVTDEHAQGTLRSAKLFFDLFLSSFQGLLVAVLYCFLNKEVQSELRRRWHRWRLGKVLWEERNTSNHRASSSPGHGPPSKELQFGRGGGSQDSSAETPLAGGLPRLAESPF
T3 sequence (P43220 24-463): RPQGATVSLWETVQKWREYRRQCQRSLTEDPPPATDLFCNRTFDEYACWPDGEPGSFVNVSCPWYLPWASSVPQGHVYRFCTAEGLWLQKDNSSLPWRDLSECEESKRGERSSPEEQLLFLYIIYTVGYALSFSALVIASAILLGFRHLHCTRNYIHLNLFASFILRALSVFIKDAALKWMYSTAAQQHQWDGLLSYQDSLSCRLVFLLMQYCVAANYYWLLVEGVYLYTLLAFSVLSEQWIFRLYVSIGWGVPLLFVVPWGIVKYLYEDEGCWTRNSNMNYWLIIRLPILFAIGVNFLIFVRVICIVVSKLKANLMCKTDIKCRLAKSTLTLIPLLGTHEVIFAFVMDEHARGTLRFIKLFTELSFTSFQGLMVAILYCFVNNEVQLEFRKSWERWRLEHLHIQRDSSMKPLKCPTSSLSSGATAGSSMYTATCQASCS

`CCCCCCCCCCCCCCCC(=O)N[C@@H](CCC(=O)N[C@@H](CCC(=O)NCCCC[C@H](NC(=O)[C@H](CCC(N)=O)NC(=O)[C@H](CCCCN)NC(=O)[C@H](CO)NC(=O)[C@H](CC(C)C)NC(=O)[C@H](CC(=O)O)NC(=O)[C@H](CO)NC(=O)[C@@H](NC(=O)[C@H](Cc1ccccc1)NC(=O)[C@@H](NC(=O)CNC(=O)[C@H](CCC(N)=O)NC(=O)[C@@H](CO)NC(=O)[C@@H](N)Cc1c[nH]cn1)[C@@H](C)O)[C@@H](C)O)C(=O)N[C@@H](CC(=O)O)C(=O)N[C@@H](CCC(=O)O)C(=O)N[C@@H](CCC(=O)O)C(=O)N[C@@H](C)C(=O)N[C@@H](C)C(=O)N[C@@H](CCCNC(=N)N)C(=O)N[C@@H](CC(C)C)C(=O)N[C@@H](Cc1ccccc1)C(=O)N[C@H](C(=O)N[C@@H](CCC(=O)O)C(=O)N[C@@H](Cc1c[nH]c2ccccc12)C(=O)N[C@@H](CC(C)C)C(=O)NC(C)(C)C(=O)N[C@@H](C)C(=O)NCC(=O)NCC(=O)N1CCC[C@H]1C(=O)N[C@@H](CO)C(=O)N[C@@H](CO)C(=O)NCC(=O)N[C@@H](C)C(=O)N1CCC[C@H]1C(=O)N1CCC[C@H]1C(=O)N1CCC[C@H]1C(=O)N[C@@H](CO)C(N)=O)[C@@H](C)CC)C(=O)O)C(=O)O` [SEQ ID NO: 9, H-dSer-Q-G-T-F-T-S-D-L-S-K-Q-K(γE-γE-x53)-D-E-E-A-A-R-L-F-I-E-W-L-Aib-A-G-G-P-S-S-G-A-P-P-P-S-NH2]: the values for the EC50 at human glucagon receptor, at human GIP receptor and at human GLP-1 receptor were 0.0118 nM, 3.6 nM and 1.8 pM, respectively. In addition, the concentration in data set [1] peaked (Cmax) at 6560 ng/mL. In data set [1], this compound had a half-life of 228 min. For the same compound, the solubility at 2 h in data set [2] (pH 4.5, target concentration 10 mg/ml, read-out: solubility pH 4.5) was 2200 µg/mL (≈ 480 µM); in data set [2] (pH 7.4, target concentration 10 mg/ml, read-out: solubility pH 7.4) it was greater than 8000 µg/mL. The “Stability pH 4.5” value in data set [3] (pH 4.5, 7 days at 40° C. in solution) is reported as 77.0 % remaining peptide. In addition, in data set [3] (pH 7.4, 7 days at 40° C. in solution), the “Stability pH 7.4” value was 93.0 % remaining peptide. In addition, in data set [4], the “blood glucose compared to DIO control” value is given as “decrease in blood glucose”. In addition, the “daily body weight compared to vehicle DIO control mice” value in data set [5] was “decrease in daily body weight”. The same compound had a Body fat change in data set [5] (Table 11 (Example 8), NMR, mean ± SEM) of -5.65 ± 0.9 g. The compound further came in with an Overall weight change in data set [5] (Table 11 (Example 8), mean ± SEM) of -6.56 ± 1.0 g.
